Experimental data published in paper PMC9412994 (Pharmaceutics, 2022).
Like-named read-outs stand apart in the source and are kept apart here.

Legend:
[1] = tested on: bovine brain capillary endothelial cells; conditions: bovine brain capillary endothelial cells on filter inserts, co-culture with glial cells; cited from earlier work
rodent P-gp = tested on: rodent P-gp; parameters: method as in PMID 32856111; conditions: LLC-PK1-Mdr1a cells; cited from earlier work
P-gp [2] = conditions: cited from earlier work
[3] = rats, cited from earlier work
[4] = cited from earlier work
human P-gp [5] = molecular target: T1, human P-gp (Homo sapiens, UniProt P08183); conditions: MDCK-MDR1 cells, same origin; cited from earlier work
T1 construct: host or cells: MDCKII-MDR1 (stably transfected canine kidney cells)

[6] = Arterial input function and plasma metabolism of the radiotracer in rats; type: in vivo; conditions: rat
Protocol: Blood samples (50 µL) were collected at selected times from the femoral artery to establish total radioactivity kinetics in arterial plasma. Plasma was separated from whole blood by centrifugation (5 min, 2054 g, 4 °C), and 20 µL of plasma and whole blood were counted using a PET cross-calibrated gamma well counter (WIZARD2, PerkinElmer, Villebon-sur-Yvette, France) to obtain the whole-blood and plasma activity curves. All data were corrected for radioactive decay from the injection time. For the larger blood samples, 80 µL plasma was deproteinized with acetonitrile. The supernatant was injected in high-performance liquid chromatography, equipped with an Atlantis® T3 5 μm 10 × 250 mm column (Waters, Guyancourt, France) and an Atlantis® T3 5 μm 19 × 10 mm pre-column (Waters) with an LB-514 radioactivity flow detector (Berthold, France, MX Z100 cell). The mobile phase was composed of water containing 0.1% (v/v) TFA (solvent A) and acetonitrile containing 0.1% (v/v) TFA (solvent B) delivered in a gradient elution mode at a flow rate of 5 mL min^−1: solvent B increased linearly from 20 to 30% from 0 to 9 min.
The method for [^11C]metoclopramide metabolism has been previously reported.

[7] = rat; 60 min post-injection; cited from earlier work
[8] = parameters: method as in PMID 26585058, PMID 34496661; conditions: rat; 8 mg/kg tariquidar versus baseline; cited from earlier work
P-gp [9] = test: Brain PET imaging in rats at baseline and after P-gp inhibition with TQD; type: in vivo; conditions: brain/plasma, with tariquidar; rat; presence of P-gp inhibition (TQD); newly calculated from published PET data of ref 21, 24
Protocol: (§1) PET acquisitions were performed using an Inveon microPET scanner (Siemens, TN, USA). […] Radiotracers were diluted in saline to obtain at least <10% ethanol in the ready-to-inject preparation.
(§2) TQD was used to inhibit P-gp function in rats. TQD was injected in a volume of 200–300 µL into the caudal vein 15 min before radiotracer injection.
(§3) Images were reconstructed with the Fourier rebinning algorithm and the three-dimensional ordered-subset expectation-maximization algorithm, including normalization, attenuation, scatter, and random corrections. Image analysis and quantification of radioactivity uptake were performed using PMOD software (version 3.9; PMOD Technologies, Zurich, Switzerland). A region of interest was drawn over the whole brain to generate time-activity curves (TACs) with time frame durations of 0.25 min, 2 × 0.5 min, 0.75 min, 4 × 1 min, 1.5 min, 4 × 2 min, 3 × 2.5 min, 3 × 3 min, and 3.5 min. Brain radioactivity was corrected for ^11C decay and expressed as the standardized uptake value (SUV) after correction by injected dose and animal weight.
(§4) The mean AUCplasma 20–30 was obtained in each condition to estimate Kp,brain = AUCbrain 20–30/AUCplasma 20–30, considering the mean metabolite-corrected arterial input function. Kp,brain were compared with a two-way ANOVA and a Tukey’s post hoc test using Graphpad Prism software (V8.0, San Diego, CA, USA).

[10] = as above; type: in vivo; conditions: rat
Protocol: as §1, §2, §3, §4

human P-gp [11] = molecular target: T1, human P-gp; parameters: method as in PMID 34496661; conditions: cited from earlier work; for IC50: read-out: IC50 of TQD (P-gp inhibition)
human P-gp [12] = molecular target: T1, human P-gp; test: Uptake assay in P-gp overexpressing MDCKII-MDR1 cells with radiolabeled substrate and tariquidar; type: cell-based; conditions: [11C]domperidone as substrate, 30 min incubation, CI95% 198-248 nM, read-out: IC50 of TQD (P-gp inhibition)
Protocol: Culture media and buffers were obtained from Fischer Scientific, France. Stably transfected MDCKII-MDR1 cells were obtained from Dr. Alfred Schinkel (National Cancer Institute, Amsterdam, The Netherlands) and were grown under a controlled atmosphere at 37 °C, 5% CO2. The culture medium was composed of DMEM Glutamax (Dulbecco’s Modified Eagle Medium, 4.5 g/Ldextrose, 1 mM pyruvate) supplemented with 10% fetal bovine serum and 1% antibiotics (penicillin and streptomycin 5000 U/mL).
Cells were seeded in 24-well plates (30,000 cells per well) in a 500 μL culture medium. Cells were grown to confluence (~2 days). […] Then, 400 μL of cell lysate was collected from each well (n = 4 wells per condition) and gamma counted using a Cobra Quantum (Perkin-Elmer, Villebon-sur-Yvette, France).
Counting values obtained in each well were normalized using Equation (1):(1) I%=R−mRzero/mRmax×100 where I% is the extent of inhibition (I%) between 0 and 100%, R is the radioactivity in the 4 tested wells, mRzero is the mean of the 4 wells without TQD, and mRmax is the difference of means between the 4 wells containing the highest concentration of TQD (800 nM) and the 4 wells without TQD. […]

T1 sequence (P08183 whole entry): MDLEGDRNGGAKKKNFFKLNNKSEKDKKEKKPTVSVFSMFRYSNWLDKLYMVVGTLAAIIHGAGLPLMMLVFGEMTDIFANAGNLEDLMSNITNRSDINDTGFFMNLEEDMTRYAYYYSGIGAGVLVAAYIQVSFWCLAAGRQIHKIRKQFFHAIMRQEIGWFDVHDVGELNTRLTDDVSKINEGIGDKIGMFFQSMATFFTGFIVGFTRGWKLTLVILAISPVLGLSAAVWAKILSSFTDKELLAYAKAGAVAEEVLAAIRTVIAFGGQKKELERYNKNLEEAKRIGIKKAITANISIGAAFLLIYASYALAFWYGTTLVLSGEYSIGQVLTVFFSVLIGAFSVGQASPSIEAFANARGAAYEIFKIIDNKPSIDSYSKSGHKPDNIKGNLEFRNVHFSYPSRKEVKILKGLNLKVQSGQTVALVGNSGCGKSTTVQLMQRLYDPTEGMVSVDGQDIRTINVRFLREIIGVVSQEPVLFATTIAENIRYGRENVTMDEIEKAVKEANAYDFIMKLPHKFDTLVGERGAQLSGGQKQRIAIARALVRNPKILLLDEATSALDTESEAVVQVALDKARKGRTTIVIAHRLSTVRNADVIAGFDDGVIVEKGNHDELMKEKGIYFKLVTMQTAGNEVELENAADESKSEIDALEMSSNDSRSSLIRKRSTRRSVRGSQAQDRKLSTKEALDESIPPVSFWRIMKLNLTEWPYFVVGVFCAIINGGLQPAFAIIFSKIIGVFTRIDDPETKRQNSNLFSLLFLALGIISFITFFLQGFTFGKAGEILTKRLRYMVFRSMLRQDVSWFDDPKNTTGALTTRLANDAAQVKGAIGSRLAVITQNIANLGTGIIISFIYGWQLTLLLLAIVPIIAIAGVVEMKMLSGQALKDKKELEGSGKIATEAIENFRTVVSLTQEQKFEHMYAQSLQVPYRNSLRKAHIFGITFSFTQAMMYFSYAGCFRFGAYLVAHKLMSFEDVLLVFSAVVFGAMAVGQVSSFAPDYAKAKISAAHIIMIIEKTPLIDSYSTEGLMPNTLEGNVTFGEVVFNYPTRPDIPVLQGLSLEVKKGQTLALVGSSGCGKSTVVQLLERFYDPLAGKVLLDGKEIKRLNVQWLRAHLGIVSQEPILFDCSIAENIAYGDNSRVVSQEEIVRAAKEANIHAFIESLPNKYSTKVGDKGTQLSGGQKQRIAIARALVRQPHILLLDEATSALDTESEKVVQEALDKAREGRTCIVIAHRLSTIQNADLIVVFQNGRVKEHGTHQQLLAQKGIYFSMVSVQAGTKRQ

For `CCN(CC)CCNC(=O)c1cc(Cl)c(N)cc1OC` [Metoclopramide], the “Passage across in vitro BBB model compared with passage across the filter (no BBB)” value [1] is given as 100%, the Efflux ratio (rodent P-gp) is given as 1.6 and the “Fold increase in Kp,brain in P-gp deficient mice compared with wild-type mice” value (P-gp [2]) is given as 6.6 fold. The “Kp,uu,brain” value ([3]; another study) was 0.235, the “Tissue/plasma ratio (Kp,brain)” value ([3]; ex vivo) was 1.72 and the “Kp,uu,brain” value [3] was 2.4. For the same molecule, the “Neurological side effects: Frequent” value [4] was “extrapyramidal signs, parkinsonian syndrome, akathisia”, the “Neurological side effects: Not Frequent” value [4] was “dystonia, dyskinesia, altered consciousness” and the “Neurological side effects: Rare” value [4] was “convulsions”. For the same molecule, the “Neurological side effects: Unspecified frequency” value [4] was “late dyskinesia, neuroleptic malignant syndrome”, the “Neurological side effects: Very Frequent” value [4] was “sleepiness” and the Efflux ratio (human P-gp [5]) was 1.4.
In the case of `O=c1[nH]c2cc(Cl)ccc2n1C1CCN(CCCn2c3ccccc3[nH][11c]2=O)CC1` [[^11C]domperidone], the “Parent (unmetabolized) fraction in plasma” value ([6]; 60 min post-injection) is reported as over 30% and the “Effect of TQD on the fraction of parent (unmetabolized) radiotracer in plasma” value ([6]; with versus without TQD) is reported as “did not impact”.
For `CCN(CC)CCNC(=O)c1cc(Cl)c(N)cc1O[11CH3]` [[^11C]metoclopramide], the “Parent (unmetabolized) fraction in plasma” value [7] is given as “could hardly be detected”, the “Maximal increase in brain exposure” value [8] is given as 2.9 fold and the Kp (P-gp [9]) is given as 47 ± 5.52. The Kp ([10]; brain/plasma, absence of P-gp inhibition, newly calculated from published PET data of ref 21, 24) was 10.1 ± 2.01, the “Baseline brain exposure (AUCbrain), fold higher compared with [11C]domperidone” value ([10]; baseline) was 2.4 fold and the “Uptake ratio (intracellular radioactivity after complete P-gp inhibition / without inhibition)” value (human P-gp [11]; MDCKII-MDR1 cells, 200 nM TQD) was 1.4 ± 0.07.
For `COc1cc2c(cc1OC)CN(CCc1ccc(NC(=O)c3cc(OC)c(OC)cc3NC(=O)c3cnc4ccccc4c3)cc1)CC2` [tariquidar, Tariquidar], the IC50 (human P-gp [12]) is given as 0.221 µM, the IC50 (human P-gp [11]; [11C]N-desmethyl-loperramide as substrate probe, same experimental conditions) is given as 0.019 µM and the IC50 (human P-gp [11]; [11C]metoclopramide as substrate, MDCKII-MDR1 cells, CI95% 2-8 nM) is given as 0.004 µM. The IC50 (human P-gp [11]; [11C]verapamil as substrate probe, same experimental conditions) was 0.045 µM.
